Where two headings read alike, the source gives them in different places.
How the values were obtained:
Bcl-2 = experiment: Western blot, Bcl-2 expression; assay type: cell-based, human; settings: HepG2, 3 h, 1.0, 2.0, 4.0 µM, vs negative control
Procedure: (§1) The HepG2 cell lines were treated with different dose of by BAP 5c (1.0, 2.0, 4.0 µM, respectively) for 3 hours, then washed twice with PBS, and lysed in ice-cold modified RIPA buffer containing PMSF (RIPA:PMSF = 100:1; the ultimate density of PMSF is 1.0 mM). The lysates were kept for 30 minutes on the ice, and then centrifuged for 15 min at 12000 rpm/min at 4 °C and the supernatant was collected. The proteins were boiled at 95 °C at 5 min with loading buffer (the volume ratio of protein and the loading buffer is 4:1). Each 50 µg protein of cell lysates were separated by 10% SDS-PAGE gel electrophoresis. The proteins were then transferred onto polyvinylidene fluorides membrane. The membranes were probed with antibodies and visualised using an enhanced chemiluminescence (ECL) detection kit according to the manufacturer instruction.

[1] = system: human cervical carcinoma cells (HeLa); experiment: Cytotoxicity, MTT assay, HeLa; assay type: cell-based
Source text: (§2) Compounds 2a–d, 3a–e, 4a–e, 5a–d, and 6a–c were screened against human neoplastic cell lines such as human lung carcinoma cells (A549), human gastric adenocarcinoma cells (SGC7901), human cervical carcinoma cells (HeLa), human liver hepatocellular carcinoma cell line (Hepg2), human chronic myelogenous leukemia cell line (K562), human acute mononuclear granulocyte leukemia (THP-1), human normal heptical cell line (LO2) (Table 1) using modified MTT assay (3-(4,5-dimethyl-2-thiazolyl)-2,5-diphenyl-2-H-tetrazolium bromide, MTT, Dojindo Laboratories, Tokyo, Japan). All cell lines were maintained at 37 °C in a humidified 5% CO2 and 95% air atmosphere. The HePG2 cell lines were cultured in DMEM containing 10% fetal bovine serum. Other cell lines were grown in medium 1640 and supplemented with 10% fetal bovine serum. […] Controls were prepared with 0.1% DMSO (v/v) only. The cells were seeded in a 96-well plate in 200 µL medium per well at a density of 1 × 10^4 cells/well for 24 hours. The cells were treated with serial concentrations of compound and incubated for 24 hours. Cells with only culture media were used as control. After the media was removed, 20 µL of MTT (5 mg/mL) was added then the plates were incubated for 4 hours at 37 °C in cell culture incubator. The MTT containing media were removed and then 150 µL of DMSO was added to dissolve the dark-blue formazan crystals. The optical density (OD) was measured by a multi-well plate reader (TECAN, Männedorf, Switzerland) at 570 nm. The results are expressed as a decrease in the cell viability (%) in comparison to untreated controls. The concentration of each compound was examined in triplicate, and the IC50 values are expressed in Table 1. The concentrations of the compounds were 50, 20, 10, 5, 2.5, 1, 0.5, 0.1, 0.05 and 0.01 µg/mL. Doxorubicin (DOX) and Curcumin were used as positive controls. […] The concentrations of curcumin used were 100, 50, 25, 12.5, 6.25, 3.125, 1, 0.5 and 0.1 µg/mL.

[2] = system: human gastric adenocarcinoma cells (SGC7901); experiment: Cytotoxicity, MTT assay, SGC7901; assay type: cell-based
Source text: as §2

HepG2 xenografts = experiment: In vivo antitumor efficacy, HepG2-bearing nude mice; design: species or system Balb/c nude mice
Procedure: The antitumor effect was investigated on the seven-week-old female Balb/c nude mice (n = 30) weighing 19–21 grams (Shanghai Laboratory Animal Center). Briefly, 0.2 mL HepG2 cells (1 × 10^7/mL) were inoculated subcutaneously into the alar left of each mouse. On the third day after the inoculation, the HepG2-bearing mice were randomly divided into five groups (n = 6/group) and administrated the according drug or solvent. […] The control group was administrated of saline as negative control. The body weight and tumor volumes calculation were recorded from the day of treatment, and the tumor volumes were calculated using the following equation: tumor volume = length × (width)^2 × π/6. Animal experiments were reviewed and approved by the Binzhou Medical University Experimental Animal Committee.

Bax = experiment: Western blot, Bax expression; assay type: cell-based, human; settings: HepG2, 3 h, 1.0, 2.0, 4.0 µM, vs negative control
Procedure: as §1

[3] = system: human carcinoma cell lines A549, SGC7901, HePG2, HeLa, K562, THP-1; experiment: Cytotoxicity, MTT assay, panel of human carcinoma cell lines (average / overall); assay type: cell-based; settings: for IC50: Homo sapiens
Source text: as §2
The cytotoxicity activities against human carcinoma cell lines A549, SGC7901, HePG2, HeLa, K562, THP-1 and cytotoxicity toward LO2 cell lines were evaluated by MTT method. DOX and curcumin were used as positive control. The selectivity index (SI) is the quotient of the IC50 values towards nonmalignant LO2 cells. […] Especially for 4a–e, 5a–d, and 6a–c, this ratio can reach about 92%.

[4] = system: human acute mononuclear granulocyte leukemia (THP-1); experiment: Cytotoxicity, MTT assay, THP-1; assay type: cell-based
Source text: as §2

[5] = system: human normal heptical cell line (LO2); experiment: Cytotoxicity, MTT assay, non-malignant LO2; assay type: cell-based; settings: 24 hours, non-malignant cells
Source text: as §2

HepG2 cells = experiment: Apoptosis assay, Annexin V-FITC/PI flow cytometry; assay type: cell-based, human; settings: 5c treatment for 24 hours, 1.0, 2.0, 4.0 µM, early and late apoptosis
Procedure: HepG2 cells were plated at a density of 1 × 10^5 cells/well in 24-well plates. […] One hundred microliters of such solution (1 × 10^5 cells) was mixed with 5 µL of Annexin V-FITC and 5µL of Propidium Iodide (BD Biosciences, San Jose, CA, USA) according to the manufacturer’s instruction. The mixed solution was gently vortexed and incubated in the dark at room temperature for 15 minutes. Four hundred microliters of 1X binding buffer were then added to each tube and cell apoptosis analysis was performed by flow cytometry (BD FACS Calibur) within 1 hour.

[6] = quotient of the IC50 values towards nonmalignant LO2 cells

Question: Which “expression level of Bcl-2” value (Bcl-2) does the source give for `O=C1/C(=C/c2cc(/N=C/c3ccc(O)c(O)c3O)ccc2F)CNC/C1=C\c1cc(/N=C/c2ccc(O)c(O)c2O)ccc1F` [5c] here?
Answer: down-regulate the expression level of Bcl-2

Question: And the IC50 ([1]; Homo sapiens, HeLa, MTT, 24 hours)?
Answer: 1500 ± 300 nM

Question: What about the “HeLa SI” value [1, 6] of the same compound?
Answer: 9.8

Question: What about the IC50 ([2]; Homo sapiens, SGC-7901, MTT, 24 hours) of the same compound?
Answer: 1400 ± 100 nM

Question: What about the “SGC7901 SI” value [2, 6] of the same compound?
Answer: 11.1

Question: And the tumor growth inhibition (HepG2 xenografts; 1.0 mg/kg/d i.p. for 20 days)?
Answer: light inhibitory activity

Question: And the tumor growth inhibition (HepG2 xenografts; 10 mg/kg/d i.p. for 20 days)?
Answer: significantly inhibited the tumor growth

Question: And the “expression level of Bax” value (Bax)?
Answer: up-regulate the expression level of Bax

Question: What about the IC50 ([3]; average over the six carcinoma cell lines, read-out: Ave IC50) of the same compound?
Answer: 1200 nM

Question: What about the IC50 ([3]; statement for all experimental carcinoma cell lines, read-out: IC50 values against human carcinoma cell lines) of the same compound?
Answer: < 2000 nM

Question: What about the “Ave SI” value ([3]; average over the six carcinoma cell lines) of the same compound?
Answer: 14.1

Question: What about the IC50 ([4]; Homo sapiens, THP-1, MTT, 24 hours) of the same compound?
Answer: 900 ± 200 nM

Question: And the “THP-1 SI” value [4, 6]?
Answer: 17.0

Question: And the IC50 [5]?
Answer: 15200 ± 600 nM

Question: And the HepG2 cells apoptosis (HepG2 cells)?
Answer: dose-dependent apoptosis

From PMC6327999, “Hydroxyl-substituted double Schiff-base condensed 4-piperidone/cyclohexanones as potential anticancer agents with biological evaluation” (Journal of Enzyme Inhibition and Medicinal Chemistry, 2019)
